Measurements published in publication PMC5041959, “A high-content EMT screen identifies multiple receptor tyrosine kinase inhibitors with activity on TGFβ receptor” (Oncotarget, 2016).
Read-outs that look alike come from different tables or passages of the source.

Assays:
ROCK = ROCK cellular assay (MLC Thr18/Ser19 phosphorylation ELISA in A7r5 cells); format: cell-based, rat; conditions: 90 min compound
Py2T cells = assay: High-content microscopy EMT assay in TGFβ-treated Py2T breast cancer cells; format: cell-based, murine; conditions: for Emax (maximal effect on cell count): compared to reference 10 μM SB-431542 = 100%
ROCK2 = ROCK2 (Homo sapiens, UniProt O75116); assay: Biochemical kinase profiling (33PanQinase radiometric assay)
ROCK1 = ROCK1 (Homo sapiens, UniProt Q13464); assay: as above
SRC = SRC (Homo sapiens, UniProt P12931); assay: as above
FGFR3 = FGFR3 (Homo sapiens, UniProt P22607); assay: as above
NMuMG cells = assay: High-content microscopy EMT screen in TGFβ-treated NMuMG cells (FA, SF, FN, cell count); format: cell-based, murine; conditions: for Emax: read-out: Emax (maximal effect on cell count)
PDGFRB = PDGFRB (Homo sapiens, UniProt P09619); assay: Biochemical kinase profiling (33PanQinase radiometric assay)
EGFR = EGFR (Homo sapiens, UniProt P00533); assay: as above
TGFBR1 = biological target: T1, TGFBR1 (Homo sapiens, UniProt P36897); assay: as above
T1 sequence (P36897 34-503): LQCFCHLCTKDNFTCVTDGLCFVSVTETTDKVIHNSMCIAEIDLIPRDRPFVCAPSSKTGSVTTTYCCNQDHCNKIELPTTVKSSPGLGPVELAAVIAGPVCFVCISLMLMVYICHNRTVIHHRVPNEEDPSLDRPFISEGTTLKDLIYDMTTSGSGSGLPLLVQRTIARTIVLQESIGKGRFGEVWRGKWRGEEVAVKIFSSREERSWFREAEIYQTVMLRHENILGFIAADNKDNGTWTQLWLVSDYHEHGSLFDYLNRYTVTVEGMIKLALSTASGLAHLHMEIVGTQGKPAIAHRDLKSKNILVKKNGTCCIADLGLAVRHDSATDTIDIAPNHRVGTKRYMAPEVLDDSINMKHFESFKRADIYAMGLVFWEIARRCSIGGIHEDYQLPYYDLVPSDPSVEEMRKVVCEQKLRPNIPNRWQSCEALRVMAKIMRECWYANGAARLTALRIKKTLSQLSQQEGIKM

FGFR1 = FGFR1 (Homo sapiens, UniProt P11362); assay: as above
FGFR2 = FGFR2 (Homo sapiens, UniProt P21802); assay: as above
TGFBR2 = TGFBR2 (Homo sapiens, UniProt P37173); assay: as above
FGFR4 = FGFR4 (Homo sapiens, UniProt P22455); assay: as above
PDGFRA = PDGFRA (Homo sapiens, UniProt P16234); assay: as above
[1] = Py2T, cell count decreased by 50% compared to DMSO control, read-out: Tox IC50
[2] = Py2T, compared to 10 μM SB-431542, read-out: CCI IC50 (cell count increase)
[3] = read-out: ROCK2 IC50, ATP at apparent Km
[4] = read-out: ROCK1 IC50, ATP at apparent Km
[5] = Mus musculus, 96 h, NMuMG, TGFβ1 2 ng/ml plus compound, 4 days, parameter decreased by 50%, read-out: FN IC50 (fibronectin patch formation)
[6] = Mus musculus, 96 h, NMuMG, TGFβ1 2 ng/ml plus compound, 4 days, parameter decreased by 50%, read-out: SF IC50 (stress fibers)
[7] = Mus musculus, NMuMG, cell count decreased by 50% compared to DMSO control, read-out: Tox IC50
[8] = NMuMG, TGFβ1 2 ng/ml plus compound, 4 days, parameter decreased by 50%
[9] = NMuMG, compared to reference 10 μM SB-431542 = 100%
[10] = Mus musculus, Py2T, cell count decreased by 50% compared to DMSO control, read-out: Tox IC50
[11] = Mus musculus, read-out: CCI IC50 (cell count increase)
[12] = Mus musculus, 96 h, NMuMG, TGFβ1 2 ng/ml plus compound, 4 days, parameter decreased by 50%, read-out: FA IC50 (focal adhesion formation)
[13] = Mus musculus, NMuMG, mean of IC50 values obtained for FA, SF, FN, read-out: EMT (FA/SF/FN) combined IC50
[14] = read-out: FGFR3 IC50, ATP at apparent Km
[15] = Py2T, TGFβ plus compound, 4 days
[16] = NMuMG, cell count decreased by 50% compared to DMSO control, read-out: Tox IC50
[17] = read-out: TGFBR1 IC50, ATP at apparent Km
[18] = read-out: FGFR2 IC50, ATP at apparent Km
[19] = read-out: TGFBR2 IC50, ATP at apparent Km
[20] = read-out: FGFR4 IC50, ATP at apparent Km

Sequence of PDGFRA (P16234 24-1089): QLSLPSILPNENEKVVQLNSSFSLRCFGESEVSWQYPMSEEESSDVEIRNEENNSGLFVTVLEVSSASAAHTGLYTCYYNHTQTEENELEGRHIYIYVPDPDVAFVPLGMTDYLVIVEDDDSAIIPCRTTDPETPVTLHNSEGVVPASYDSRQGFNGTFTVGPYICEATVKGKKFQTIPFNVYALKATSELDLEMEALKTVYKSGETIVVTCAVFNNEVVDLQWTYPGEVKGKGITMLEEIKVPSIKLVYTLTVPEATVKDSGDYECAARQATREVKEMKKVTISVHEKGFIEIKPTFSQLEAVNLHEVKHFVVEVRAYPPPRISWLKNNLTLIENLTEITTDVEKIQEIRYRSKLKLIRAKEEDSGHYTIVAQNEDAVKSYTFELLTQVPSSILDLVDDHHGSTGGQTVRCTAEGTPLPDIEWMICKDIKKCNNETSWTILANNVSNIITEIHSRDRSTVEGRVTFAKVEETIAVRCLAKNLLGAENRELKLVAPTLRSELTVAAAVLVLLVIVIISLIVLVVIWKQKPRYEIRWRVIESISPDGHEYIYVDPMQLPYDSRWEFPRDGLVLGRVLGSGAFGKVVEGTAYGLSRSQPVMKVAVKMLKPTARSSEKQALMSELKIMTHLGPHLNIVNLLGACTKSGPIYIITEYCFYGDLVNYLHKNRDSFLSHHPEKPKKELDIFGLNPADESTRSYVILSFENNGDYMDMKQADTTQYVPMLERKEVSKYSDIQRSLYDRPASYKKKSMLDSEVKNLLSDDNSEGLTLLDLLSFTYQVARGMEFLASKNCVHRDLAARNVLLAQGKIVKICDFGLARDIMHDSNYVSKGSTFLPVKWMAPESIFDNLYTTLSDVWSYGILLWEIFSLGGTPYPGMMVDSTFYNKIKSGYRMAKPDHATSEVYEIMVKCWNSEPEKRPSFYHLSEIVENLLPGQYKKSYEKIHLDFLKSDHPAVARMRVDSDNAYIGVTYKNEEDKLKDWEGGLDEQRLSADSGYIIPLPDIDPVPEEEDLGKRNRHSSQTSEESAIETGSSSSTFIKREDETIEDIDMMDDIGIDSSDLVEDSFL
Sequence of TGFBR2 (P37173 23-567): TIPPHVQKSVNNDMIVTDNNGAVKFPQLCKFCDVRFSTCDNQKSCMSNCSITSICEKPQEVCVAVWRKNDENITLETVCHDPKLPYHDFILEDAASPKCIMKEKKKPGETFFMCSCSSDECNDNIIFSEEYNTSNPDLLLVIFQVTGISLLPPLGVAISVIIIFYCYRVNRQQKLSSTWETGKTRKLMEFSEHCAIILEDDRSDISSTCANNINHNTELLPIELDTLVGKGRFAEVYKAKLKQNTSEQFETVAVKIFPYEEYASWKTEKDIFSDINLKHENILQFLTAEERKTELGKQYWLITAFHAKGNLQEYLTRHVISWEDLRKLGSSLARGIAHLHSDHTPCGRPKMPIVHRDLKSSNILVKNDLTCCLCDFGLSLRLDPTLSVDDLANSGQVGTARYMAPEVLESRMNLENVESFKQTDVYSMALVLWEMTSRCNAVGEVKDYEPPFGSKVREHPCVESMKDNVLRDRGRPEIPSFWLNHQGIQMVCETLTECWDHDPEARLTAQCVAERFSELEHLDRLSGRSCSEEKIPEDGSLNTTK
Sequence of FGFR4 (P22455 22-802): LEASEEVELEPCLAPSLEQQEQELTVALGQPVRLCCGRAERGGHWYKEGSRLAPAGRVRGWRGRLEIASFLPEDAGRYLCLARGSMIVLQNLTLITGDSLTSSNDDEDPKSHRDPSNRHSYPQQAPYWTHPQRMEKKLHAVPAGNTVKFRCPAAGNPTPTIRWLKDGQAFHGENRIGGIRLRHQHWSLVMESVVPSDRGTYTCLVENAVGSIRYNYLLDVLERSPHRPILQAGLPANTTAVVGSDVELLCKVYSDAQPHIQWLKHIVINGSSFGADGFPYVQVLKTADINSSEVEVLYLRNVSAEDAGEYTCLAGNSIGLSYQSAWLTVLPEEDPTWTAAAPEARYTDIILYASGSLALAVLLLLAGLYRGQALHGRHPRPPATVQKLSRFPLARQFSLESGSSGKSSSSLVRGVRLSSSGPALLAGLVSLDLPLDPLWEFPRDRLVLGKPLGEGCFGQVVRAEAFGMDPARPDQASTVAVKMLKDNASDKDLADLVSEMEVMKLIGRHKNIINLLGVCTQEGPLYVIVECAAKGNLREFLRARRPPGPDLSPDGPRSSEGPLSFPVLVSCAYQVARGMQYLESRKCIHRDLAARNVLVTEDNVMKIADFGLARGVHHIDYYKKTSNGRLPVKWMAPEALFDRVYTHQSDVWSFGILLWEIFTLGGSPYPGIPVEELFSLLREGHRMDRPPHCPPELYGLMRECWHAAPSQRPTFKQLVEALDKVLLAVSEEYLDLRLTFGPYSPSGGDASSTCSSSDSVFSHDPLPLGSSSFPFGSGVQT
Sequence of FGFR3 (P22607 23-806): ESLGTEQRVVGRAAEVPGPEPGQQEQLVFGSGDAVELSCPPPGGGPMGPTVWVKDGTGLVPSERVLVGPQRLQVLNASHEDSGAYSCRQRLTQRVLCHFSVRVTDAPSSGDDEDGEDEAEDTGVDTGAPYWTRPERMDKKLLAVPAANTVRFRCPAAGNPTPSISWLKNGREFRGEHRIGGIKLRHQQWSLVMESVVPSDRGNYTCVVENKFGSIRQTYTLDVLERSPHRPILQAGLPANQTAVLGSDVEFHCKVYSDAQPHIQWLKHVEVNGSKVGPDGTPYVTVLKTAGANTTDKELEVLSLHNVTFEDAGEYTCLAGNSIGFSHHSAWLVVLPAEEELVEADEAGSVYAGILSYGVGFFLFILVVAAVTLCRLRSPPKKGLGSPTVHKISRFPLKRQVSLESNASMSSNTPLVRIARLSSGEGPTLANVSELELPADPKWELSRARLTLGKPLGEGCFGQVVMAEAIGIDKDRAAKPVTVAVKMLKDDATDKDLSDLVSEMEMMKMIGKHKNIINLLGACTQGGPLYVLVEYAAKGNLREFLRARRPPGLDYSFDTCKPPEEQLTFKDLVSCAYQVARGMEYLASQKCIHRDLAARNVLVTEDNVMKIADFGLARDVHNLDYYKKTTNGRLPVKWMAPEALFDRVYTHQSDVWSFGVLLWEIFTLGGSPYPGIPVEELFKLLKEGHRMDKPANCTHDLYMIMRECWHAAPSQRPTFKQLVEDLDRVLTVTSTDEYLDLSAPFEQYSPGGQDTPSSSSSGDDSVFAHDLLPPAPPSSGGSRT
Sequence of PDGFRB (P09619 33-1106): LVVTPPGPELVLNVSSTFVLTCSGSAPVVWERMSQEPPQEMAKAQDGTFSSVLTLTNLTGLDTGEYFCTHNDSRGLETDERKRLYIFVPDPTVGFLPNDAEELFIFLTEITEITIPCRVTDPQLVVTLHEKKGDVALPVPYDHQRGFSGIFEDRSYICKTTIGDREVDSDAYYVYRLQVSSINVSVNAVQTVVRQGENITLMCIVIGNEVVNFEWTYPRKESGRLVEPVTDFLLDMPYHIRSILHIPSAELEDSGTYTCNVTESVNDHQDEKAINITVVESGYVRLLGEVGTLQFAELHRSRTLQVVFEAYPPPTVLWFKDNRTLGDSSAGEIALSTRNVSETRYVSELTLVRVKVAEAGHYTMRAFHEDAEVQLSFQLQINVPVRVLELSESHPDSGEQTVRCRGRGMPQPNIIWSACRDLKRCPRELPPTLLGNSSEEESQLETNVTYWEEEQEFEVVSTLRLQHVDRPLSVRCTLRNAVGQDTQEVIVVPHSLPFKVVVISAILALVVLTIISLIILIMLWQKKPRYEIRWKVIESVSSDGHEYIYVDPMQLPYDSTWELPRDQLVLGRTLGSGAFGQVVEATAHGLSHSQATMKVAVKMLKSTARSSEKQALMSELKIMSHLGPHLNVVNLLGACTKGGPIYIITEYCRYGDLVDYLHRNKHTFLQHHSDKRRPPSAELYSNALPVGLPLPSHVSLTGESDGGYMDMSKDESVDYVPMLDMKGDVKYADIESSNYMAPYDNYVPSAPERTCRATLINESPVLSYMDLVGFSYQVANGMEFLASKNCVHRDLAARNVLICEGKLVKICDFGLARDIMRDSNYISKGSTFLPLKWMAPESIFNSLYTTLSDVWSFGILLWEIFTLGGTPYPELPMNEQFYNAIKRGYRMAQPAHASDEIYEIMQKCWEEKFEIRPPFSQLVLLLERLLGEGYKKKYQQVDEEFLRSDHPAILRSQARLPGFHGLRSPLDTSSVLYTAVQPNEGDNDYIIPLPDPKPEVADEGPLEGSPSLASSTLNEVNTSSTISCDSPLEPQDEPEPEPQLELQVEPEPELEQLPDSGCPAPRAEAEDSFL
Sequence of FGFR2 (P21802 22-821): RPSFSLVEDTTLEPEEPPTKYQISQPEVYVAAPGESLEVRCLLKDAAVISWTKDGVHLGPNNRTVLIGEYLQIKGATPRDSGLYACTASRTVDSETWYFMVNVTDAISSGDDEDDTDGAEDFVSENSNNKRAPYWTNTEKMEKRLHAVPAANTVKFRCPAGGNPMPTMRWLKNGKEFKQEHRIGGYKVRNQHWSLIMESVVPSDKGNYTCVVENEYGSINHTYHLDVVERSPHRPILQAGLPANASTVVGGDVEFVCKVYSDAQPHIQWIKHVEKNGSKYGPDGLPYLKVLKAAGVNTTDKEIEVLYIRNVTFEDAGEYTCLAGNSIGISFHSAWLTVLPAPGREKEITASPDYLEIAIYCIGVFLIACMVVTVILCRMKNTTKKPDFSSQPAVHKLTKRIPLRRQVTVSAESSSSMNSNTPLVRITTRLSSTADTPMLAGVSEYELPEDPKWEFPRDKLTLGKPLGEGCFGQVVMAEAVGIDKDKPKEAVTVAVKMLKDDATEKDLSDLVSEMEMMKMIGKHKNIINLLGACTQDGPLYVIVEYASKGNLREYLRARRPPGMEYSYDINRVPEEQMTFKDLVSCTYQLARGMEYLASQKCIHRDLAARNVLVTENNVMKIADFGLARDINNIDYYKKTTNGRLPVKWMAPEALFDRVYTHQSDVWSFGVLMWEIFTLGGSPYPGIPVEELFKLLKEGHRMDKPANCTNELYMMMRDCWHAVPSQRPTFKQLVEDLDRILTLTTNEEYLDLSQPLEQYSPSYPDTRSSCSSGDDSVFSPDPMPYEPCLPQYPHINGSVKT

NC(=O)c1ccc(NC(=O)NCc2cccc(C(=O)Nc3ccc4c(c3)CNCC4)c2)cc1 [CAY10622]
IC50 (ROCK): > 10000 nM | IC50 (Py2T cells; Py2T, TGFβ plus compound, 4 days, read-out: FA IC50 (focal adhesions)): > 25000 nM | IC50 (Py2T cells; Py2T, TGFβ plus compound, 4 days, read-out: FN IC50 (fibronectin patches)): > 25000 nM | IC50 (Py2T cells; Py2T, TGFβ plus compound, 4 days, read-out: SF IC50 (stress fibers)): > 25000 nM | IC50 (Py2T cells; [1]): > 25000 nM | IC50 (Py2T cells; [2]): > 25000 nM | Emax (maximal effect on cell count) (Py2T cells; Py2T): 18.4% | IC50 (ROCK2; [3]): 17.8 nM | IC50 (ROCK1; [4]): 54 nM

COCCOc1ccc2c(c1)ncn2-c1ccc2cccc(N3CCC(N)CC3)c2n1 [CP673451]
IC50 (ROCK; Rattus norvegicus, 1.5 h): 1500 nM | IC50 (SRC): 1070 nM | IC50 (FGFR3): 9090 nM | IC50 (NMuMG cells; [5]): 2050 nM | IC50 (NMuMG cells; [6]): 2560 nM | IC50 (NMuMG cells; [7]): 3590 nM | FA IC50 (focal adhesion formation) (NMuMG cells; [8]): n.m. | Emax (maximal effect on cell count) (NMuMG cells; [9]): n.m. | IC50 (ROCK2): 1000 nM | IC50 (ROCK1): 3370 nM | IC50 (PDGFRB): 1.9 nM | IC50 (EGFR): 2120 nM | IC50 (TGFBR1): > 10000 nM | IC50 (FGFR1): 5630 nM | IC50 (FGFR2): 1010 nM | IC50 (TGFBR2): > 10000 nM | IC50 (FGFR4): > 10000 nM | IC50 (PDGFRA): 618 nM

CC1=C(C(=O)Nc2cc3cn[nH]c3cc2F)C(c2ccc(C(F)(F)F)cc2)CC(=O)N1 (centres unmarked) [GSK429286A]
IC50 (ROCK; Rattus norvegicus, 1.5 h): 29 nM | IC50 (Py2T cells; Mus musculus, 96 h, Py2T, TGFβ plus compound, 4 days, read-out: FA IC50 (focal adhesions)): 245 nM | IC50 (Py2T cells; Mus musculus, 96 h, Py2T, TGFβ plus compound, 4 days, read-out: FN IC50 (fibronectin patches)): 192 nM | IC50 (Py2T cells; Mus musculus, 96 h, Py2T, TGFβ plus compound, 4 days, read-out: SF IC50 (stress fibers)): 105 nM | IC50 (Py2T cells; [10]): 20300 nM | IC50 (Py2T cells; [11]): 51.8 nM | Emax (Py2T cells; Mus musculus, read-out: Emax (maximal effect on cell count)): 47.5% | IC50 (NMuMG cells; [12]): 127 nM | IC50 (NMuMG cells; [5]): 264 nM | IC50 (NMuMG cells; [6]): 82 nM | IC50 (NMuMG cells; [7]): > 25000 nM | IC50 (NMuMG cells; [13]): 158 nM | IC50 (NMuMG cells; [11]): 142 nM | Emax (NMuMG cells; Mus musculus): 33.2% | IC50 (ROCK2): 55.3 nM | IC50 (ROCK1): 46.7 nM

CCN(CC)CCCCNc1ncc2cc(-c3c(Cl)cccc3Cl)c(NC(=O)NC(C)(C)C)nc2n1 [PD-161570]
IC50 (SRC; read-out: SRC IC50, ATP at apparent Km): 5.2 nM | IC50 (FGFR3; [14]): 27.2 nM | FA IC50 (focal adhesions) (Py2T cells; [15]): n.m. | FN IC50 (fibronectin patches) (Py2T cells; [15]): n.m. | SF IC50 (stress fibers) (Py2T cells; [15]): n.m. | IC50 (Py2T cells; [1]): 479 nM | IC50 (Py2T cells; [2]): 232 nM | Emax (maximal effect on cell count) (Py2T cells; Py2T): 43% | IC50 (NMuMG cells; NMuMG, TGFβ1 2 ng/ml plus compound, 4 days, parameter decreased by 50%, read-out: FA IC50 (focal adhesion formation)): 337 nM | IC50 (NMuMG cells; NMuMG, TGFβ1 2 ng/ml plus compound, 4 days, parameter decreased by 50%, read-out: FN IC50 (fibronectin patch formation)): 1040 nM | IC50 (NMuMG cells; NMuMG, TGFβ1 2 ng/ml plus compound, 4 days, parameter decreased by 50%, read-out: SF IC50 (stress fibers)): 702 nM | IC50 (NMuMG cells; [16]): 4970 nM | IC50 (NMuMG cells; NMuMG, cell count increased by 50% compared to 100% with 10 μM SB-431542, read-out: CCI IC50 (cell count increase)): 525 nM | Emax (maximal effect on cell count) (NMuMG cells; [9]): 50.8% | IC50 (NMuMG cells; NMuMG, mean of IC50 values obtained for FA, SF, FN, read-out: EMT (FA/SF/FN) combined IC50): 694 nM | IC50 (ROCK2; [3]): > 10000 nM | IC50 (ROCK1; [4]): > 10000 nM | IC50 (PDGFRB; read-out: PDGFRB IC50, ATP at apparent Km): 95.8 nM | IC50 (TGFBR1; [17]): 44.9 nM | IC50 (FGFR2; [18]): 6.5 nM | IC50 (TGFBR2; [19]): 1280 nM | IC50 (FGFR4; [20]): 667 nM | IC50 (PDGFRA; read-out: PDGFRA IC50, ATP at apparent Km): 2370 nM

CCN(CC)CCOc1ccc(Nc2ncc3cc(-c4c(Cl)cccc4Cl)c(=O)n(C)c3n2)cc1 [PD-166285]
IC50 (FGFR3): 9 nM | IC50 (Py2T cells; [10]): 138 nM | FA IC50 (focal adhesions) (Py2T cells; [15]): n.m. | FN IC50 (fibronectin patches) (Py2T cells; [15]): n.m. | SF IC50 (stress fibers) (Py2T cells; [15]): n.m. | Emax (maximal effect on cell count) (Py2T cells; Py2T): n.m. | IC50 (NMuMG cells; [12]): 27 nM | IC50 (NMuMG cells; [5]): 39 nM | IC50 (NMuMG cells; [6]): 79 nM | IC50 (NMuMG cells; [7]): 229 nM | IC50 (NMuMG cells; [13]): 48.3 nM | IC50 (NMuMG cells; [11]): 17 nM | Emax (NMuMG cells; Mus musculus): 24% | IC50 (TGFBR1): 6.8 nM | IC50 (FGFR2): 1.8 nM | IC50 (TGFBR2; TGFBR2 IC50, ATP at apparent Km): 137 nM | IC50 (FGFR4): 55.5 nM

COc1cc(OC)cc(-c2cc3cnc(N)nc3nc2NC(=O)NC(C)(C)C)c1 [PD-166866]
IC50 (FGFR3; [14]): 49.3 nM | FA IC50 (focal adhesion formation) (NMuMG cells; [8]): n.m. | FN IC50 (fibronectin patch formation) (NMuMG cells; [8]): n.m. | SF IC50 (stress fibers) (NMuMG cells; [8]): n.m. | IC50 (NMuMG cells; [16]): 3360 nM | CCI IC50 (cell count increase) (NMuMG cells; NMuMG, cell count increased by 50% compared to 100% with 10 μM SB-431542): n.m. | Emax (maximal effect on cell count) (NMuMG cells; [9]): n.m. | IC50 (ROCK2; [3]): > 10000 nM | IC50 (ROCK1; [4]): > 10000 nM | IC50 (TGFBR1; [17]): > 10000 nM | IC50 (FGFR1; read-out: FGFR1 IC50, ATP at apparent Km): 22.5 nM | IC50 (FGFR2; [18]): 10.2 nM | IC50 (TGFBR2; [19]): > 10000 nM | IC50 (FGFR4; [20]): 492 nM

CCN(CC)CCCCNc1ncc2cc(-c3cc(OC)cc(OC)c3)c(NC(=O)NC(C)(C)C)nc2n1 [PD-173074]
IC50 (SRC): 6730 nM | Emax (maximal effect on cell count) (NMuMG cells): n.m. | IC50 (NMuMG cells; [7]): 3220 nM | FA IC50 (focal adhesion formation) (NMuMG cells; [8]): n.m. | FN IC50 (fibronectin patch formation) (NMuMG cells; [8]): n.m. | SF IC50 (stress fibers) (NMuMG cells; [8]): n.m. | IC50 (ROCK2): > 10000 nM | IC50 (ROCK1): > 10000 nM | IC50 (PDGFRB): 3390 nM | IC50 (TGFBR1): > 10000 nM | IC50 (TGFBR2): > 10000 nM | IC50 (FGFR4): 418 nM | IC50 (PDGFRA): > 10000 nM
